Reference: BindingDB's records for doi:10.1016/S0960-894X(01)80278-X (n/a, 1994)
Starred links: 1 amine or outer side, 2 acyl side, 3 side chain; linkers in the order of their positions; H or OH if unused. Non-standard residues stand in square brackets, D forms with d. Residues, ends and D or L forms follow the SMILES beside them. *: point of attachment. X2 = C=CCN([C@@H](C)C(=O)[*:2])[*:1]; X1 = O=C(CN(CC(Br)CBr)[*:1])[*:2]; X3 = O=C(CN(CC(Cl)CCl)[*:1])[*:2]; NAllylGly = C=CCNCC(=O)O; Boc = CC(C)(C)OC(=O)*

Assay: Antiviral activity against HIV-1 in CEM cells

CC[C@H](C)[C@H](NC(=O)CN(CC(Cl)CCl)C(=O)[C@H](Cc1ccccc1)NC(=O)OC(C)(C)C)C(=O)N[C@H](C(=O)OC)C(C)C (stereo not given in full) and CC[C@H](C)[C@H](NC(=O)CN(CC(Cl)CCl)C(=O)[C@H](Cc1ccccc1)NC(=O)[C@H](C)NC(=O)OC(C)(C)C)C(=O)N[C@H](C(=O)OC)C(C)C (stereo not given in full) (Boc-AF[X3]IV-OMe) cannot be ordered by IC50: greater than 50.4 µM for the first, greater than 136 µM for the second.

Compared with CC[C@H](C)[C@H](NC(=O)CN(CC(Br)CBr)C(=O)[C@H](Cc1ccccc1)NC(=O)OC(C)(C)C)C(=O)N[C@H](C(=O)OC)C(C)C (stereo not given in full), CC[C@H](C)[C@H](NC(=O)CN(CC(Br)CBr)C(=O)[C@H](Cc1ccccc1)NC(=O)[C@H](C)NC(=O)OC(C)(C)C)C(=O)N[C@H](C(=O)OC)C(C)C (stereo not given in full) (Boc-AF[X1]IV-OMe) is higher in IC50: 56.7 µM for the first, greater than 610 µM for the second. The first is the more potent here.

C=CCN(C(=O)[C@H](Cc1ccccc1)NC(=O)OC(C)(C)C)[C@@H](C)C(=O)N[C@H](C(=O)N[C@H](C(=O)OC)C(C)C)[C@@H](C)CC and C=CCN(C(=O)[C@H](Cc1ccccc1)NC(=O)[C@H](C)NC(=O)OC(C)(C)C)[C@@H](C)C(=O)N[C@H](C(=O)N[C@H](C(=O)OC)C(C)C)[C@@H](C)CC (Boc-AF[X2]IV-OMe) cannot be ordered by IC50: greater than 16.5 µM for the first, greater than 296 µM for the second.

C=CCNCC(=O)N[C@H](C(=O)N[C@H](C(=O)OC)C(C)C)[C@@H](C)CC and C=CCN(CC(=O)N[C@H](C(=O)N[C@H](C(=O)OC)C(C)C)[C@@H](C)CC)C(=O)OC(C)(C)C cannot be ordered by IC50: greater than 195 µM for the first, greater than 226 µM for the second.

Compared with C=CCN(C(=O)[C@H](Cc1ccccc1)NC(=O)[C@H](C)NC(=O)[C@H](C)NC(=O)OC(C)(C)C)[C@@H](C)C(=O)N[C@H](C(=O)N[C@H](C(=O)OC)C(C)C)[C@@H](C)CC (Boc-AAF[X2]IV-OMe), C=CCN(C(=O)[C@H](Cc1ccccc1)NC(=O)[C@H](C)NC(=O)[C@H](C)NC(=O)[C@H](CO)NC(=O)OC(C)(C)C)[C@@H](C)C(=O)N[C@H](C(=O)N[C@H](C(=O)OC)C(C)C)[C@@H](C)CC (Boc-SAAF[X2]IV-OMe) is higher in IC50: 3.89 µM for the first, greater than 120 µM for the second.

Compared with C=CCN(CC(=O)N[C@H](C(=O)N[C@H](C(=O)OC)C(C)C)[C@@H](C)CC)C(=O)[C@H](Cc1ccccc1)NC(=O)[C@H](C)NC(=O)OC(C)(C)C (Boc-AF[NAllylGly]IV-OMe), C=CCN(CC(=O)N[C@H](C(=O)N[C@H](C(=O)OC)C(C)C)[C@@H](C)CC)C(=O)[C@H](Cc1ccccc1)NC(=O)OC(C)(C)C (Boc-F[NAllylGly]IV-OMe) is higher in IC50: 54.1 µM for the first, greater than 169 µM for the second.

C=CCN(CC(=O)N[C@H](C(=O)N[C@H](C(=O)OC)C(C)C)[C@@H](C)CC)C(=O)[C@H](Cc1ccccc1)NC(=O)[C@H](C)NC(=O)[C@H](C)NC(=O)[C@H](CO)NC(=O)OC(C)(C)C (Boc-SAAF[NAllylGly]IV-OMe) and C=CCN(CC(=O)N[C@H](C(=O)N[C@H](C(=O)OC)C(C)C)[C@@H](C)CC)C(=O)[C@H](Cc1ccccc1)NC(=O)[C@H](C)N (H-AF[NAllylGly]IV-OMe) cannot be ordered by IC50: greater than 24.4 µM for the first, greater than 178 µM for the second.

For C=CCN(CC(=O)N[C@H](C(=O)N[C@H](C(=O)OC)C(C)C)[C@@H](C)CC)C(=O)[C@@H](N)Cc1ccccc1 (H-F[NAllylGly]IV-OMe), the IC50 was greater than 204 µM.
